As a reminder, the solubility is the concentration that dissolves in the medium under given conditions. Usually IC50 stands for the concentration that inhibits the measured activity by half.

A short description of series [1]: physchem. The note with it: for solubility at 16 h: 25 °C, pH 7.4, aqueous buffer, kinetic from dmso stock; for Measured Solubility in pH 7.4 phosphate buffer (mg/ml) / Measured Solubility in pH 7.4 phosphate buffer (μM): 50 mM potassium phosphate buffer pH 7.40, 16 hr at ~25° C., incubation concentration 1600 μM. The method, then:
2.79 g of K2HPO4 and 0.54 g of KH2PO4 was dissolved in 390 mL of milliQ water. pH was adjusted to 7.4 using 1N HCl/1N NaOH and final volume was made up to 400 mL with milliQ water.
In case of compounds not soluble/less quantity submission, 40/20/10Mm stocks were prepared and used for experiment.
Assay Procedure: • 245 μL of 50 mM phosphate buffer then 5 μL each of test compound/standards (80 mM) in their respective positions was added to the 1.1 mL 96 well plate. • DMSO Controls was prepared by taking 245 μL of 100% DMSO then 5 μL each of test compound in their respective positions and added to the 1.1 mL 96 well plate • Plate was incubated with mixing at 1600 RPM for 16 hours at room temperature (˜23 MC). • After incubation, samples were filtered using Millipore plates. • Filtrates were analysed by HPLC-UV.
Solubility is calculated using the following formula: […]

Series [2] concerns the target erythrocyte KCa3.1 channels (Homo sapiens (Human), UniProt O15554). In words: Erythrocyte KCa3.1 assay. The class given is cell-based. Conditions: human erythrocytes, A23187-activated KCa3.1; read-out: RBC K (in vitro) Human IC50 (μM) Potency category. How it is done:
Human blood was drawn from healthy human volunteers in a standard heparinized blood sampling vial (Vacutainer, Li/heparin, ED Bioscience, Plymouth, UK). The erythrocytes were packed by centrifugation, and the plasma and buffy coat were removed by aspiration. Erythrocytes were washed three times in the experimental salt solution and then stored at 0° C. until use. Blood samples from NMRI mice or from Wistar rats were treated similarly. The methodological principle is outlined in Macey et al. (1978) and further described in Strøbaek et al. (2013). Activation of the erythrocyte KCa3.1 channels were obtained by addition of the Ca^2+ ionophore A23187, which causes synchronized hyperpolarization, which is reported as a CCCP-mediated shift in the unbuffered extracellular pH of the erythrocyte suspension. Standard procedure: 3 mL unbuffered experimental salt solution (in mM: 2 KCl, 154 NaCl, 0.05 CaCl2) was heated to 37° C. with stirring. Packed erythrocytes were added (50 μL, final cytocrit 1.5%), and the extracellular pH (pHo) followed with a glass/calomel (pHG200-8/REF200, Radiometer, Denmark) electrode pair. CCCP (3 μL, final concentration 20 μM) was added followed by varying concentrations of test compounds (DMSO concentration constant). After pH stabilization at ˜7.2, A23187 (3 μL, final concentration 0.33 μM) was added to initiate the experiment. After the peak hyperpolarization was attained, the intracellular pH (pHi constant during the experiment) was found by haemolysing the erythrocytes via addition of 100 μL of Triton-X100.
The erythrocyte membrane potential, Vm, was calculated according to: […]
and the fractional remaining Ca^2+-activated K^+-conductance at the concentration C of blocker, fGK(C), was calculated from
where the K^+ equilibrium potential EK=−107 mV, the Cl^− equilibrium potential ECl=−12 mV and the Vm(0) and Vm(C) are the peak hyperpolarizations in the control and in the presence of a concentration of C of blocker respectively.
IC50 values for compounds were calculated from a plot of fGK(C) versus C by a fit to the Hill equation, using a custom program written in the IGOR-Pro software (WaveMetrics, Lake Oswego, OR, USA). All IC50-values are reported in μM.

Structures are written as SMILES. Where “and” joins values, the source holds several entries; their conditions need not be identical. Equal values may be shown once.

`COC(=O)N(CC(C)(C)N)C1(c2ccc(F)c(C(F)(F)F)c2)CC1` [Methyl (2-amino-2-methylpropyl)(1-(4-fluoro-3-(trifluoromethyl)phenyl)cyclopropyl)carbamate]: the solubility at 16 h in series [1] is 556 µg/mL and 1600 µM. The IC50 in series [2] is under 0.3 µM.
Take `COC(=O)N(CC(C)(C)N)C1(c2cccc(Cl)c2)CC1` [Methyl (2-amino-2-methylpropyl)(1-(3-chlorophenyl)cyclopropyl)carbamate]: the solubility at 16 h in series [1] is 634 µg/mL and 1500 µM. Besides, the IC50 in series [2] was under 1 µM.
As for `CCOC(=O)N(C[C@@H]1CCCN1)C1(c2ccc(F)c(C(F)(F)F)c2)CC1` [Ethyl (S)-(1-(4-fluoro-3-(trifluoromethyl)phenyl)cyclopropyl)(pyrrolidin-2-ylmethyl)carbamate], the solubility at 16 h in series [1] is 594 µg/mL and 1400 µM. Besides, the IC50 in series [2] was under 0.3 µM.
For `CC(C)(O)CN(CC1CCN1)C1(c2ccc(F)c(C(F)(F)F)c2)CC1` (stereo not drawn) [1-((azetidin-2-ylmethyl)(1-(4-fluoro-3-(trifluoromethyl)phenyl)cyclopropyl)amino)-2-methyl propan-2-ol], the solubility at 16 h in series [1] is 755 µg/mL and 1600 µM. In addition, the IC50 in series [2] is under 0.3 µM.
As to `COC(=O)N(CC(C)(C)N)C1(c2cccc(C(F)(F)F)c2)CC1` [Methyl (2-amino-2-methylpropyl)(1-(3-(trifluoromethyl)phenyl)cyclopropyl)carbamate], the solubility at 16 h in series [1] is 526 µg/mL and 1400 µM. In addition, the IC50 in series [2] was under 0.3 µM.
On to `CC(C)(N)CNC1(c2ccc(F)c(C(F)(F)F)c2)CC1` [N1-(1-(4-fluoro-3-(trifluoromethyl)phenyl)cyclopropyl)-2-methylpropane-1,2-diamine], for which the solubility at 16 h in series [1] is 482 µg/mL and 1700 µM. For the same molecule, the IC50 in series [2] was under 0.3 µM.
Consider `COC(=O)N(CC(C)(C)NC(C)=O)C1(c2ccc(F)c(C(F)(F)F)c2)CC1` [Methyl (2-acetamido-2-methylpropyl)(1-(4-fluoro-3-(trifluoromethyl)phenyl)cyclopropyl)carbamate], for which, in series [1], the solubility at 16 h was 596 µg/mL and 1500 µM. Also, the IC50 in series [2] was under 1 µM.
For `COC(=O)N(C[C@H]1CCCN1)C1(c2ccc(F)c(OC(F)(F)F)c2)CC1` [Methyl (R)-(1-(4-fluoro-3-(trifluoromethoxy)phenyl)cyclopropyl)(pyrrolidin-2-ylmethyl)carbamate], in series [1], the solubility at 16 h is 677 µg/mL and 1600 µM. Besides, the IC50 in series [2] is under 1 µM.
For the molecule `COC(=O)N(C[C@@H]1CCCN1)C1(c2ccc(F)c(C(F)(F)F)c2)CC1` [Methyl (S)-(1-(4-fluoro-3-(trifluoromethyl)phenyl)cyclopropyl)(pyrrolidin-2-ylmethyl)carbamate], the solubility at 16 h in series [1] was 653 µg/mL and 1600 µM. Moreover, the IC50 in series [2] was under 0.3 µM.
As for `COC(=O)N(C[C@@H]1CCN1)C1(c2ccc(F)c(C(F)(F)F)c2)CC1` [Methyl (S)-(azetidin-2-ylmethyl)(1-(4-fluoro-3-(trifluoromethyl)phenyl)-cyclopropyl)carbamate], the solubility at 16 h in series [1] was 591 µg/mL and 1700 µM. Moreover, the IC50 in series [2] is under 1 µM.
With `COC(=O)N(CC1(N)CC1)C1(c2ccc(F)c(C(F)(F)F)c2)CC1` [Methyl ((1-aminocyclopropyl)methyl)(1-(4-fluoro-3-(trifluoromethyl)phenyl)cyclopropyl) carbamate], in series [1], the “Measured Solubility in pH 7.4 phosphate buffer (mg/ml)” value (shortened to “Measured Solubility … (mg/ml)”) amounted to 0.5599 mg/ml and the “Measured Solubility in pH 7.4 phosphate buffer (μM)” value (“Measured Solubility … (μM)” for short) is on record as 1600 μM. Besides, the IC50 in series [2] was under 0.3 µM.
For `COC(=O)N(CC1CCN1C)C1(c2ccc(F)c(C(F)(F)F)c2)CC1` (stereo not drawn) [Methyl (1-(4-fluoro-3-(trifluoromethyl)phenyl)cyclopropyl)((1-methylazetidin-2-yl)methyl)carbamate], the solubility at 16 h in series [1] was 598 µg/mL and 1700 µM. For the same molecule, the concentration for half-maximal inhibition (IC50) in series [2] is under 0.3 µM.
As to `COC(=O)N(C[C@@]1(C)CCCN1)C1(c2ccc(F)c(C(F)(F)F)c2)CC1` [Methyl (R)-(1-(4-fluoro-3-(trifluoromethyl)phenyl)cyclopropyl)((2-methylpyrrolidin-2-yl)methyl)carbamate], the solubility at 16 h in series [1] is 585 µg/mL and 1400 µM. In addition, the IC50 in series [2] was under 0.3 µM.
As for `COC(=O)N(C[C@H]1COCCN1)C1(c2ccc(F)c(C(F)(F)F)c2)CC1` [Methyl (S)-(1-(4-fluoro-3-(trifluoromethyl)phenyl)cyclopropyl)(morpholin-3-ylmethyl) carbamate], in series [1], the “Measured Solubility … (mg/ml)” value is recorded as 0.6118 mg/ml and the “Measured Solubility … (μM)” value worked out at 1500 μM. The IC50 in series [2] was under 1 µM.
For `N[C@H]1CCC[C@@H]1NC1(c2ccc(F)c(C(F)(F)F)c2)CC1` [(1S,2S)-N1-(1-(4-fluoro-3-(trifluoromethyl)phenyl)cyclopropyl)-cyclopentane-1,2-diamine], the solubility at 16 h in series [1] was 239 µg/mL and 700 µM. Moreover, the IC50 in series [2] was under 1 µM.
On to `Fc1ccc(C2(N(CC3CC3)C3CNC3)CC2)cc1C(F)(F)F` [N-(cyclopropylmethyl)-N-(1-(4-fluoro-3-(trifluoromethyl)phenyl)cyclopropyl)azetidin-3-amine], for which, in series [1], the solubility at 16 h is 679 µg/mL and 1500 µM. The IC50 in series [2] is under 0.3 µM.
`NC1(CNC2(c3ccc(F)c(C(F)(F)F)c3)CC2)CC1` [N-((1-aminocyclopropyl)methyl)-1-(4-fluoro-3-(trifluoromethyl)phenyl)cyclopropan-1-amine]: the solubility at 16 h in series [1] was 464 µg/mL and 1400 µM. The IC50 in series [2] is under 0.3 µM.
Take `COC(=O)N(CC1CCN1)C1(c2ccc(F)c(OC(F)(F)F)c2)CC1` (stereo not drawn) [Methyl (azetidin-2-ylmethyl)(1-(4-fluoro-3-(trifluoromethoxy)phenyl)cyclopropyl)carbamate]: the solubility at 16 h in series [1] was 558 µg/mL and 1500 µM. Further, the IC50 in series [2] is under 0.3 µM.
Consider `COC(=O)N(C[C@H]1CCCN1C)C1(c2ccc(F)c(C(F)(F)F)c2)CC1` [Methyl (R)-(1-(4-fluoro-3-(trifluoromethyl)phenyl)cyclopropyl)((1-methylpyrrolidin-2-yl)methyl)carbamate], for which the solubility at 16 h in series [1] is 558 µg/mL and 1500 µM. Further, the IC50 in series [2] is under 0.3 µM.
On to `COC(=O)N(C[C@H]1CCCN1)C1(c2ccc(F)c(C(F)(F)F)c2)CC1` [Methyl (R)-(1-(4-fluoro-3-(trifluoromethyl)phenyl)cyclopropyl)(pyrrolidin-2-ylmethyl)carbamate], for which the solubility at 16 h in series [1] was 667 µg/mL and 1700 µM. The IC50 in series [2] is under 0.3 µM.
`COC(=O)N(C[C@@H]1CCCN1)C1(c2ccc(F)c(OC(F)(F)F)c2)CC1` [Methyl (S)-(1-(4-fluoro-3-(trifluoromethoxy)phenyl)cyclopropyl)(pyrrolidin-2-ylmethyl)carbamate]: the solubility at 16 h in series [1] was 674 µg/mL and 1600 µM. Further, in series [2], the IC50 is under 0.3 µM.
Turning to `CS(=O)(=O)N(C[C@@H]1CCCN1)C1(c2ccc(F)c(C(F)(F)F)c2)CC1` [(S)-N-(1-(4-fluoro-3-(trifluoromethyl)phenyl)cyclopropyl)-N-(pyrrolidin-2-ylmethyl) methanesulfonamide], in series [1], the “Measured Solubility … (mg/ml)” value is 0.3218 mg/ml and the “Measured Solubility … (μM)” value was determined as 800 μM. In series [2], the IC50 was under 1 µM.
For `CCOC(=O)N(CC(C)(C)N)C1(c2ccc(F)c(C(F)(F)F)c2)CC1` [Ethyl (2-amino-2-methylpropyl)(1-(4-fluoro-3-(trifluoromethyl)phenyl)cyclopropyl)carbamate], the solubility at 16 h in series [1] is 607 µg/mL and 1500 µM. Also, the IC50 in series [2] is under 0.3 µM.
Consider `COC(=O)N(CC(C)(C)NO)C1(c2ccc(F)c(C(F)(F)F)c2)CC1` [Methyl (1-(4-fluoro-3-(trifluoromethyl)phenyl)cyclopropyl)(2-(hydroxyamino)-2-methylpropyl)carbamate], for which the solubility at 16 h in series [1] is 138 µg/mL and 400 µM. For the same molecule, the IC50 in series [2] was under 0.3 µM.

These data come from patent US20240034717A1, “NOVEL POTASSIUM CHANNEL INHIBITORS” (Saniona A/S, priority 2020, published 2024).
